# Reference: US20100093662A1, “NOVEL AMPHIPHILIC CYCLODEXTRIN DERIVATIVES” (CENTRE NATIONAL DE LA RECHERCHE SCIENTIFIQUE-CNRS-, priority 2006, published 2010)
# What was measured:
# plasmid pTG11236 = experiment: Electrophoretic analysis of nanoparticles of DNA (agarose gel, ethidium bromide); format: binding; settings: for accessibility of the DNA at the intercalation by ethidium bromide: N/P ratio=5, plasmid pTG11236
# Procedure: The plasmid pTG11236 (pCMV-SV40-luciferase-SV40 pA), used in the preparation of DNA complexes and for transfection tests is a plasmid with 5739 pairs of bases. The quantities of compounds used are calculated to obtain a DNA concentration of 0.1 mg·mL^−1 (303 μM in phosphate equivalent) and the desired Nitrogen/Phosphate (N/P) ratios. Tests for values of N/P=5, 10, 30 and 50 were carried out both for compound no. 8 and for compound no. 16. As a reference transfection formulation (positive control), we used polyplexes formulated with the same plasmid and the polycationic polymer polyethyleneimine (branched PEI, 25 kDa), and naked DNA as a negative control.
# For the preparation of the complexes, the DNA is diluted in HEPES (20 mM, pH 7.4) until a final concentration of 303 μM in phosphate equivalent, then the quantity of compound no. 8 or no. 16 necessary, obtained from a stock solution of 20 mg·mL^−1 in DMSO-water 1:2 (v/v) is added in order to obtain the desired N/P ratio. For the PEI, a 0.1M stock solution in water is used. The mixtures are vortexed for 10 sec and used in the characterisation and for the transfection tests, as described below.
# 10 μl of each formulation of complexes prepared as mentioned above are diluted once in the loaded buffer (glycerol+bromophenol blue+Tris-acetate-EDTA or TAE). 1 μl of this solution are deposited on a gel with 8% agarose. The rest of the sample is diluted once with a decomplexing solution with 8% sodium dodecyl sulfate (SDS) in TAE, then 10 μl are also deposited on a gel. The electrophoresis is carried out for […] at 50V. The gel is then developed with ethidium bromide (Sigma) in TAE ([…] of a solution of ethidium bromide with a concentration of 10 mg·mL^−1 in 200 mL of TAE). The DNA is also visualised and photographed with an UV transilluminator. FIGS. 2 and 3 are photos of electrophoretic analyses, carried out on agarose gel in the presence of ethidium bromide, of DNA complexes/nanoparticles obtained with compound no. 8 according to an N/P ratio of 5, 10, 30 and 50 respectively.
# BNL-CL2 cells [1] = experiment: In vitro transfection of nanoparticles of DNA, luciferase assay; format: cell-based, Murine; settings: 0.5 μg of DNA per well (FIG. 6: N/P=10)
# Procedure: (§1) Murine embryo cells BNL-CL2 are grown in 96-well plates until a density of 2×10^4 cells/well in a DMEM culture medium (Dulbelcco's Modified Eagle Medium, Gibco-BRL) containing 10% foetal calf serum (SVF; Sigma) at 37° C. in a humid atmosphere with a proportion of 5% CO2/95% air.
# (§2) The complexes between compound no. 8, no. 16 or polyethyleneimine (PEI), and plasmid pTG11236 are diluted in 100 μl of DMEM so as to obtain 0.5 μg of DNA in the well.
# (§3) The culture medium is removed and replaced by 100 μl of solution of nanoparticle complex/DNA in DMEM. After 4 hrs and 24 hrs, 50 and 100 μL of DMEM containing 30% and 10% of FCS, respectively, are added. After 48 hrs, the transfection is stopped, the culture medium is removed and the cells are washed with PBS (2×100 μL), then lysed with 50 μL of lysis buffer (Promega, Charbonnières, France). The lysates are frozen at −32° C. until the luciferase and protein assay.
# The luciferase assay is used to assess the efficacy of transfection. This assay is based on a chimioluminescence reaction whose principle is based on oxydation by luciferase of its substrate (luciferine) with concomitant production of a photon. The activity of the luciferase is measured with a Biolumat LB96P WMP100 apparatus (BERTHOLD) for 10 sec after the injection of 50 μl of reagent containing luciferine (Prmèga assay kit) in each well containing 10 μl of cell extract. […]
# BNL-CL2 cells [2] = experiment: Cell viability after transfection (BCA protein assay); format: cell-based, Murine; settings: for cell viability compared with PEI/DNA polyplexes at the same N/P ratios: N/P ratios>10; for cell viability after transfection: complexes with pTG11236, N/P 5 to 50, 0.5 μg plasmid/well
# Procedure: as §1, §2, §3
# The protein assay is based on the BCA test (Pierce). The protein assay is carried out on 15 μl of cell lysate to which are added 300 μl of Pierce reagent (BCA Protein Assay Reagent). It consists of a colorimetric assay which is carried out with UV/visible MRX spectrophotometry (DYNEX Technologies). For each assay, a standard series is carried out with BSA (Bovine Serum Albumin, BIO-RAD), of 0 to 30 μg per well. The reading is taken at 570 nm, after 30 […] at ambient temperature. With this standard BSA series, the OD may be expressed in mg of protein/well.
# The ratio of the quantities of proteins corresponding to the transfected and non transfected (100% cell viability) cells is used to assess the cell viability of the complexes (expressed in %).
# All of the formulations are tested at least 3 times. The results obtained were processed using STATGRAPHICS Plus5.1 software (trade mark). Anova analysis of variance is carried out on the values of the efficacies of transfection (LoglO(fg luciferase/mg protein)) and on the cell viability. It is possible to analyse the impact (on the transfection or cell viability) of the variation of one or several factors by applying a mono- or multifactorial analysis of variance, respectively. The method used to compare the means is the HSD (honestly significant difference) intervals by Tukey.
# [3] = Size and polydispersion of white homogenous nanospheres (quasi-elastic diffusion of light), physical stability over time; format: physicochemical
# Procedure: The method used to prepare white homogenous nanospheres consists in introducing an organic phase of acetone (or tetrahydrofurane) and an amphiphilic cyclodextrin derivative from the invention (1 mg·mL^−1) in an aqueous phase of equivalent volume or a double volume (distilled water), under magnetic stirring (500 r.p.m.) at 25° C. After nanoprecipitation, the organic solvent is eliminated under reduced pressure at +35° C. The aqueous suspension presenting an opalescent to milky appearance (according to the products used) is then concentrated until the final volume desired is obtained, then filtered on a 0.8 μm filter (Millex AA, Millipore, France).
# The colloid suspensions are then characterised as regards the granulometry (mean size and polydisperion) and, when they incorporate loaded amphiphilic cyclodextrins, by their zeta potential. The characterisation is carried out using the following methods:
# The quasi-elastic diffusion of light is used. A Zetasizer 3000 apparatus equipped with a K7132 correlator (Malvern Instruments, RU) was used. The conditions for measurement are as follows: angle of detection 90°, temperature 25±0.1° C., apparent viscosity 0.89 mPa·s. Before measuring the size, samples are diluted in distilled water if necessary. The hydrodynamic diameter (mean Z) and polydispersion index (PI) of the nanoparticles in suspension are calculated in intensity by the cumulant method by carrying out 3 measurements on the same sample. The value of the hydrodynamic diameter is calculated using the measurement of the translational coefficient of diffusion of particles with Brownian movement. An NanoZS apparatus (Malvern Instruments) was also used to measure the size of the nanocapsules. In the same way, the samples are diluted before measurement, if necessary in water added to Montanox 80 (trade mark).
# The studies on the physical stability of particles were carried out over periods ranging from 1 month to 8 months. The corresponding data for a series of amphiphilic cyclodextrins in the invention are indicated in Table 1 providing the granulometric characteristics (mean size and polydispersion index or mean PI), with evolution over time, of different homogenous nanospheres derived from the compounds indicated in the left column, the reference number for said compounds corresponding to those of the compounds described in the above examples.
Mean size ± standard deviation (n = 3) ([3]; initial) [nm],PI (polydispersion index) ([3]; initial),Molecule,accessibility of the DNA at the intercalation by ethidium bromide (plasmid pTG11236),cell viability compared with PEI/DNA polyplexes at the same N/P ratios (BNL-CL2 cells [2]),cell viability after transfection (BNL-CL2 cells [2]),other results
,,"CCCCCC(=O)O[C@@H]1[C@@H](OC(=O)CCCCC)[C@H]2O[C@H]3[C@H](OC(=O)CCCCC)[C@@H](OC(=O)CCCCC)[C@@H](O[C@H]4[C@H](OC(=O)CCCCC)[C@@H](OC(=O)CCCCC)[C@@H](O[C@H]5[C@H](OC(=O)CCCCC)[C@@H](OC(=O)CCCCC)[C@@H](O[C@H]6[C@H](OC(=O)CCCCC)[C@@H](OC(=O)CCCCC)[C@@H](O[C@H]7[C@H](OC(=O)CCCCC)[C@@H](OC(=O)CCCCC)[C@@H](O[C@H]8[C@H](OC(=O)CCCCC)[C@@H](OC(=O)CCCCC)[C@@H](O[C@@H]1[C@@H](CSCCNC(=S)NCCN)O2)O[C@@H]8CSCCNC(=S)NCCN)O[C@@H]7CSCCNC(=S)NCCN)O[C@@H]6CSCCNC(=S)NCCN)O[C@@H]5CSCCNC(=S)NCCN)O[C@@H]4CSCCNC(=S)NCCN)O[C@@H]3CSCCNC(=S)NCCN.Cl.Cl.Cl.Cl.Cl.Cl.Cl [compound no. 16, heptakis[6-desoxy-6-(2-(N′-(2-aminoethyl)thioureido)ethylthio)-2,3-di-O-hexanoyl]cyclomaltoheptaose heptachlorhydrate]",no longer accessible,significantly higher,excellent,"levels of transfection compared with N/P 10 polyplexes formulated with PEI (BNL-CL2 cells [1]): equal; levels of transfection, times higher than those with naked DNA (BNL-CL2 cells [1]): about 10,000 times"
,,"heptakis[6-(2-aminoethylthio)-6-desoxy-2,3-di-O-hexanoyl]cyclomaltoheptaose heptachlorhydrate [compound no. 8]",partially accessible,significantly higher,excellent,"complexation of the DNA (absence of DNA bands) (plasmid pTG11236; N/P ratio≧10, plasmid pTG11236): total complexation"
251 ± 62,0.08,"CCCCCC(=O)O[C@@H]1[C@@H](OC(=O)CCCCC)[C@H]2O[C@H]3[C@H](OC(=O)CCCCC)[C@@H](OC(=O)CCCCC)[C@@H](O[C@H]4[C@H](OC(=O)CCCCC)[C@@H](OC(=O)CCCCC)[C@@H](O[C@H]5[C@H](OC(=O)CCCCC)[C@@H](OC(=O)CCCCC)[C@@H](O[C@H]6[C@H](OC(=O)CCCCC)[C@@H](OC(=O)CCCCC)[C@@H](O[C@H]7[C@H](OC(=O)CCCCC)[C@@H](OC(=O)CCCCC)[C@@H](O[C@H]8[C@H](OC(=O)CCCCC)[C@@H](OC(=O)CCCCC)[C@@H](O[C@@H]1[C@@H](CI)O2)O[C@@H]8CI)O[C@@H]7CI)O[C@@H]6CI)O[C@@H]5CI)O[C@@H]4CI)O[C@@H]3CI [compound no. 1, heptakis(6-desoxy-2,3-di-0-hexanoyl-6-iodo) cyclomaltoheptaose]",,,,Mean size ± standard deviation (n = 3) ([3]; 8 months): 236 ± 13 nm; PI (polydispersion index) ([3]; 8 months): 0.03
217 ± 17,0.04,"CCCCCCCCCCCCCC(=O)O[C@@H]1[C@@H](OC(=O)CCCCCCCCCCCCC)[C@H]2O[C@H]3[C@H](OC(=O)CCCCCCCCCCCCC)[C@@H](OC(=O)CCCCCCCCCCCCC)[C@@H](O[C@H]4[C@H](OC(=O)CCCCCCCCCCCCC)[C@@H](OC(=O)CCCCCCCCCCCCC)[C@@H](O[C@H]5[C@H](OC(=O)CCCCCCCCCCCCC)[C@@H](OC(=O)CCCCCCCCCCCCC)[C@@H](O[C@H]6[C@H](OC(=O)CCCCCCCCCCCCC)[C@@H](OC(=O)CCCCCCCCCCCCC)[C@@H](O[C@H]7[C@H](OC(=O)CCCCCCCCCCCCC)[C@@H](OC(=O)CCCCCCCCCCCCC)[C@@H](O[C@H]8[C@H](OC(=O)CCCCCCCCCCCCC)[C@@H](OC(=O)CCCCCCCCCCCCC)[C@@H](O[C@@H]1[C@@H](CI)O2)O[C@@H]8CI)O[C@@H]7CI)O[C@@H]6CI)O[C@@H]5CI)O[C@@H]4CI)O[C@@H]3CI [compound no. 4, heptakis(6-desoxy-6-iodo-2,3-di-O-myristoyl)cyclomaltoheptaose]",,,,IP (polydispersion index) ([3]; 3 months): 0.03; Mean size ± standard deviation (n = 3) ([3]; 3 months): 206 ± 20 nm; IP (polydispersion index) ([3]; 6 months): 0.06; Mean size ± standard deviation (n = 3) ([3]; 6 months): 227 ± 26 nm
